Laboratory results from US20160235102A1, “SWEETENER COMPOSITION, SWEETENER PRODUCTS, AND METHODS OF SWEETENING” (ALMENDRA AMERICAS, LLC, priority 2013, published 2016).

Tested on: trained expert panelists
Test: Sensory formulation study ballot: taste attributes rated on 0-15 scales by trained expert panelists
Assay type: in vivo, human
Settings: 0-15 scale, rating defined for panel calibration
Excerpt: Tongue numbing can also manifest itself as “tongue tingling”. These non-sugar-like characteristics appear inter-related in the sense that formulation as well as temperature changes affect the perception of several of them. Another taste characteristic of steviol glycosides, particularly those with relatively low levels of REB A, is soapiness, a characteristic that results from the surfactant portion of the molecule. To quantify all of these sensory effects by existing methods would require an expert sensory panel and at least 4 different sensory tests (i.e., C/R Function Determination, Flavor Profile Analysis, Temporal Profile Analysis and Adaptation Profile Analysis). However, to address a need for rapid screening of HP sweetener formulations, Prakash et al., described a scaling technique to quantify all of these sensory percepts in a single test (reference shown below under the table). An improvement of this methodology is described below.
Prior to the evaluation of test samples, all panelists must first calibrate themselves on Sucrose and Reference Samples (e.g., REB A) to ensure that they are able to appropriately scale taste attributes of interest. These Reference Samples are to be available in ample quantities for all experimental sessions. The Sucrose Reference is 10.0% sucrose acidified with 0.1% citric acid. For illustration purposes, an example of a Reference Sample can be a REB A Reference Sample that has 500 PPM REB A in the same system for general formula optimization studies.
Take a ca. 15 mL sample of the Sucrose Reference into the mouth swishing it around vigorously and note all attributes of the sensory experience. After ca. 10 sec, expectorate the sample and immediately rinse vigorously with ca. 15 mL of water, expectorating the rinse water. Over the next 2 minutes, while minimizing tongue movement in the mouth, pay attention to any rebound or intensification in perceived sweetness, bitterness, or numbing/tingling sensation. The intensity of the attribute perceived at 2 minutes is an estimate of its lingering tendency. Upon completion of calibration with the Sucrose Reference, calibration with the REB A Reference is carried out in the same way. The attribute ratings for the Sucrose and REB A References, all on 0-15 scales, are defined as follows: […]
After completion of reference sample calibrations, as well as in follow up of all sample tests, rinse the mouth vigorously with ca. 15 mL portions of the Sucrose Reference solution and two ca. 15 mL portions of water in effort to get the sensory system back to baseline.
After calibration with the Sucrose Reference and REB A Reference, evaluate all experimental samples by the same protocol, always using the Sucrose Reference and water rinse procedure and ensuring adequate time for the sensory system to return to normal before proceeding with subsequent samples
Taste procedure: the beverages were evaluated in triplicate using the sensory methodology described herein by four trained expert panelists and mean values were used for data analysis.

[1] = 2 minutes after expectoration and rinse, 10.0% sucrose or 500 PPM REB A in 0.1% citric acid
[2] = Sucrose Reference 10.0% sucrose, REB A Reference 500 PPM, both in 0.1% citric acid

With C=C1C[C@@]23CC[C@H]4[C@@](C)(CCC[C@@]4(C)C(=O)O[C@@H]4O[C@H](CO)[C@@H](O)[C@H](O)[C@H]4O)[C@@H]2CC[C@]1(O[C@@H]1O[C@H](CO)[C@@H](O)[C@H](O[C@@H]2O[C@H](CO)[C@@H](O)[C@H](O)[C@H]2O)[C@H]1O[C@@H]1O[C@H](CO)[C@@H](O)[C@H](O)[C@H]1O)C3 [REB A100 Reference, rebaudioside A] the “Bitterness Intensity @ 2 Min (Bitter2)” value [1] was 2, the “Numbing/Tingling Sensation @ 2 Min (Numb/Ting2)” value [1] was 2 and the “Sweetness Intensity @ 2 Min (Sweet2)” value [1] was 3. The “Astringency Intensity (Astring)” value [2] was 0, the “Bitterness Intensity (IB)” value [2] was 3 and the “Mouthfeel (Mfeel)” value [2] was 0. For the same molecule, the “Numbing/Tingling Sensation (Numb/Ting)” value [2] was 0, the “Soapiness (Soap)” value [2] was 1 and the “Sweetness Intensity Initial (Sweetness)” value [2] was 10. For the same molecule, the “Sweetness Onset/Appearance Time (Onset)” value [2] was 3.
